Key:
Assay in all cases: Challenge test in broth
Assay type in all cases: cell-based
Details in all cases: Tryptic Soy Broth, blend added at 0.5% v/v
[1] = test system: Candida albicans (ATCC 10231)
From the text: (§1) A challenge protocol similar to the CTFA method was followed to assess efficacy against a broad spectrum of microorganisms. The four separate inocula were: Staphylococcus aureus (ATCC 6538), Pseudomonas aeruginosa (ATCC 9027) and Enterobacter gergoviae (cosmetic isolate), Candida albicans (ATCC 10231), and mixed molds Aspergillus niger (ATCC 6275) and a Penicillium sp. cosmetic isolate. Tubes containing 20 milliliters of broth were inoculated with approximately 1,500,000 bacteria per gram, 50,000 yeast cells per gram or 100,000 mold spores per gram. Individual challenges were prepared from overnight slants of bacteria and yeast cultures and from heavily sporulating mold cultures, 7 to 10 days old. All samples were plated quantitatively for viable organisms after 24 hours and 8 days.

[2] = test system: Pseudomonas aeruginosa (ATCC 9027) and Enterobacter gergoviae (cosmetic isolate)
From the text: as §1

[3] = test system: Staphylococcus aureus (ATCC 6538)
From the text: as §1

[4] = test system: mixed molds Aspergillus niger (ATCC 6275) and a Penicillium sp. cosmetic isolate
From the text: as §1

Compound: OCCOc1ccccc1 [2-Phenoxyethanol]
- Colony Forming Units per Milliliter of Broth (CFU/ml) after 8 Days [1]: 4.0 × 10^3 CFU/ml
- Colony Forming Units per Milliliter of Broth (CFU/ml) after 8 Days [2]: 9.1 × 10^7 CFU/ml
- Colony Forming Units per Milliliter of Broth (CFU/ml) after 8 Days [3]: 3.2 × 10^8 CFU/ml
- Colony Forming Units per Milliliter of Broth (CFU/ml) after 8 Days [4]: 5.8 × 10^2 CFU/ml
